This is an account of results in EP0528615A1, “Cribrostatins 1 and 2” (ARIZONA BOARD OF REGENTS, priority 1991, dated 1993).

The test system of data set [1] is colon cancer (CoLo 205). The data set is described as follows: NCI panel cell lines, colon cancer. Type of data set: cell-based, human. An excerpt: (§1) Presently the Cribrochalina sp. constituents are undergoing detailed antineoplastic evaluation. […] (See: Boyd, status of the NCI preclinical antitumor drug discovery screen: implications for selection of new agents for clinical trial. In: DeVita et al., Principles and Practices of Oncology, update series, Vol. 3, No. 10, Lippincott, Philadelphia 1989, pp1-12; and Boyd et al., Data display and analysis strategies from NCI disease oriented in vitro antitumor drug screen. In:Valeriote et al., Antitumor Drug Discovery and Development, Kluwer Academic Press, Amsterdam, 1990.) The human tumor cell line panel currently used for these studies consists of a diverse array of 60 different cell lines representing eight major cancer subtypes.

In data set [2] the test system is NCI human cancer cell lines. The data set is described as follows: NCI human cancer cell lines, cytostatic activity (general statement). Type of data set: cell-based.
Text: as §1

Data set [3] has as its system non-small lung cancer (A549/ATCC, HOP-18, and NCI-H460). The data set is described as follows: NCI panel cell lines, non-small lung cancer. Type of data set: cell-based, human. The following applies: non-small lung cancer (A549/ATCC, HOP-18, NCI-H460).
Text: as §1

In data set [4] the test system is melanoma cancer line (LOX-1MCI; MALME-3M; M14; M19-MEL; SK-MEL-2; KS-MEL-28; SK-MEL-5; UACC_257; UACC-62). The class given is cell-based, human.
Text: as §1

In data set [5] the test system is P388 murine lymphocytic leukemia. The data set is described as follows: in vitro PS leukemia cell growth inhibition (NCI P388 protocol). Type of data set: cell-based. Particulars: Mus musculus, isolated pure compounds, read-out: PS ED₅₀. An excerpt: In early research devoted to the first systematic investigation of marine animals as new sources of potential anticancer drugs the phylum Porifera rapidly became of increasing importance. Subsequent detection of antineoplastic activity in some of these sponge species led to the isolation of such cell growth inhibitory compounds, as macrocyclic lactones, pyrroles, peptides, and proteins. Meanwhile the isolation of heterocyclic marine sponge constituents such as pyrroles, imidazoles, oxazoles, indoles, pyridines, quinolizidines, pteridines, acridines, other nitrogen systems and quinones has been rapidly accelerating. So far ten isoquinolinequinones have been isolated from blue species of the sponge genera Reniera and Xestospongia. In 1986 an exploratory survey of marine Porifera off remote islands in the Republic of the Maldives was conducted which located a deep blue colored specimen of Cribrochalina sp. (Haplosclerida order) that afforded an orange ethanol extract. The encrusting sponge was found in areas of strong (and dangerous) currents to -45m in the South side of East reef passages and yielded and ethanol extract that provided 40% life extension (at mg/kg) against the U.S. National Cancer Institute's in vivo murine P388 lymphocytic leukemia (PS system). […]

In brackets after ≈: the same amount, converted by molar mass.

For the compound `CC1=C(N)C(=O)c2c(ccnc2C)C1=O` [Cribrostatin 1], the “result in NCI panel cell line” value in data set [1] is listed as “especially favorable results”; in data set [3], “especially favorable results”; in data set [4] (melanoma (MALME-3M, M14, M19-MEL, SK-MEL-2, SK-MEL-28, UACC-257, UACC-62)), “especially favorable results”. Moreover, in data set [2], the cytostatic properties result was “cytostatic properties”. Further, the LC₅₀ in data set [4] was 10⁻⁵ - 10⁻⁶. Also, in data set [4] (all nine melanoma lines of the 60 cell line panel), the “sensitivity relative to panel mean” value was “sensitivity greater than the panel mean”. Further, the IC50 in data set [5] stood at 1.58 µg/mL (≈ 7.81 µM).
`CCOC1=C(C)C(=O)c2cc(=O)n(C)cc2C1=O` [Cribrostatin 2]: in data set [2], the cytostatic properties result is recorded as “cytostatic properties”. Also, the IC50 in data set [5] worked out at 2.73 µg/mL (≈ 11 µM).
